# Experimental data published in patent US20170215422A1, “NOVEL CYCLIC DEPSIPEPTIDE DERIVATIVES AND HARMFUL ORGANISM CONTROL AGENTS COMPRISING THE SAME” (priority 2012, published 2017).
# Tests used:
# Assay type in all cases: in vivo
# Musca domestica = assay: Control effect against Musca domestica adults (sucrose solution on swab); conditions: 50 ppm in 40% sucrose solution, 4 days
# Protocol: A chemical solution of the compound according to the present invention that had been adjusted with a 40% sucrose solution to a concentration of 50 ppm was adsorbed on a swab, and the swab was placed in a vial. Two adults of Musca domestica grown in a room were released, followed by standing in a room at a room temperature of 25° C. […] When two insects were in a dead or anguished state, the test compound was determined to be effective.
# [1] = system: Haemaphysalis longicornis; assay: Tickicidal effect against Haemaphysalis longicornis (capsule on mouse); conditions: treatment of 9.5 μg on mouse body surface; nymphal ticks; 5 days
# Protocol: A capsule having a diameter of 2 cm and a height of 2 cm was bonded to a surface of a back surface of a mouse. A compound of the present invention (9.5 μg) was dissolved in ethanol, and the solution was dropped on the surface of the body of the […] within the capsule. After thorough drying, ten nymphal ticks of Haemaphysalis longicornis were released, and the upper portion of the capsule was lidded for hermetical closing. The mouse was grown in a cage at 25° C. for 12 hr under light phase conditions. Five days after the release, the capsule was removed, and survival or death of the nymphal ticks and the number of blood sucked individuals were measured, and the death/anguish rate was calculated by the following equation.
# Death/anguish rate (%)={number of dead/anguished insects/(number of survived ticks+number of dead/anguished insects)}×100
# [2] = system: larvae of Musca domestica; assay: Control effect against larvae of Musca domestica (treated feed); conditions: treatment of 12.5 ppm in feed; 5 days
# Protocol: A compound of the present invention was applied to a very small amount of DMSO, followed by dissolution in deionized water to prepare a chemical solution. The chemical solution (2 mil) adjusted to a concentration of 12.5 ppm was added to and well mixed with 2 g of a powder prepared by mixing wheat bran, MF feed (ORIENTAL YEAST Co., Ltd.), and dry yeast at a wheat bran:MF feed:dry yeast of 25:5:1 to prepare a feed for larvae of Musca domestica. The feed containing the compound was lightly packed in a 3-ml vial, and eight eggs were released. The mouth of the vial was closed with a meshed lid, and the vial was left to stand at 25° C. The number of larvae was counted five days after the chemical treatment, and the death rate was calculated by the following equation. The test was carried out by replicating each treatment twice.
# Death rate (%)={number of dead larvae/(number of survived larvae+number of dead larvae)}×100
SMILES,insecticidal activity (two adults dead or anguished = effective) (Musca domestica),death/anguish rate [1],death rate [2] [%]
CCCCC[C@@H]1OC(=O)[C@H](C)N(C)C(=O)[C@@H](CCCCC)OC(=O)[C@H](C)N(C)C(=O)[C@@H](CCCCC)OC(=O)[C@H](CC(C)C)N(C)C(=O)[C@@H](CCCCC)OC(=O)[C@H](C)N(C)C1=O [Compound 27],two insects were brought to a dead or anguished state,not less than 70%,
CCCCCC1OC(=O)C(CC(C)C)N(C)C(=O)C(CCCCC)OC(=O)C(CC(C)C)N(C)C(=O)C(CCCCC)OC(=O)C(CCC)N(C)C(=O)C(CCCCC)OC(=O)CN(C)C1=O (stereo not drawn) [Compound 57],,,100
